System: male rats
Assay: Fecal pellet output in male rats after i.p. dosing
Format: in vivo, rat
Details: for fecal pellet output (in words): dosed alone, every 30 mins for 2 hr
Protocol: Methods: In male rats (200-300 g) fecal pellet output was measured every 30 mins for 2 hr following administration of tegaserod (0.01-1.0 mg/kg i.p.), neostigmine (0.01-0.1 mg/kg i.p.) or a combination of both compounds.

SMILES | # Fecal Pellets (Neo 0.01 mg/kg i.p. alone, 30 min) | # Fecal Pellets (Neo 0.01 mg/kg i.p. alone, 60 min) | # Fecal Pellets (Neo 0.01 mg/kg i.p. alone, 90 min) | # Fecal Pellets (Neo 0.01 mg/kg i.p. alone, 120 min) | fecal pellet output (in words) (neostigmine 0.01-0.1 mg/kg i.p.) | # Fecal Pellets (Teg 0.01 mg/kg i.p. alone, 30 min) | # Fecal Pellets (Teg 0.01 mg/kg i.p. alone, 60 min) | # Fecal Pellets (Teg 0.01 mg/kg i.p. alone, 90 min) | # Fecal Pellets (Teg 0.01 mg/kg i.p. alone, 120 min) | # Fecal Pellets (Teg 0.1 mg/kg i.p. alone, 30 min) | # Fecal Pellets (Teg 0.1 mg/kg i.p. alone, 60 min) | # Fecal Pellets (Teg 0.1 mg/kg i.p. alone, 90 min) | # Fecal Pellets (Teg 0.1 mg/kg i.p. alone, 120 min) | fecal pellet output (in words) (tegaserod 0.01-1.0 mg/kg i.p.)
CN(C)C(=O)Oc1cccc([N+](C)(C)C)c1 [Neo, neostigmine] | 0.67 ± 0.33 | 1.00 ± 0.58 | 1.00 ± 0.58 | 1.33 ± 0.67 | dose and time-dependent increase in fecal pellet output | – | – | – | – | – | – | – | – | –
CCCCCNC(=N)N/N=C/c1c[nH]c2ccc(OC)cc12 [Teg, 3-(5-methoxy-1H-indol-3-yl-methylene)-N-pentylcarbazimidamide] | – | – | – | – | – | 0.17 ± 0.17 | 0.17 ± 0.17 | 0.33 ± 0.21 | 1.50 ± 0.62 | 0.83 ± 0.32 | 1.25 ± 0.35 | 1.50 ± 0.34 | 1.83 ± 0.39 | dose and time-dependent increase in fecal pellet output
